Measurements reported in US12520839B2, “Methods and compositions for cryopreservation of cell therapies” (The George Washington University, priority 2020, dated 2026).

What was measured:
Format in all cases: cell-based
NK cells [1] = experiment: CD16 expression on NK cells after cryopreservation and thawing
Description: (§1) A freezing medium (FM) was prepared having 50% RPMI, 40% FBS, 10% DMSO. FM was supplemented with the ADAM17 inhibitor TAPI-2 at amounts indicated in this example. Additionally, a wash medium (WM) was prepared having 50% RPMI, 40% FBS, 10% DMSO and supplemented with TAPI-2 at amounts indicated in this example.
(§2) Experiments were generally performed using in-vitro NK cells and T cells that were isolated and expanded for 14 days in culture. On day 14 of the culture, the NK cells and T cells were cryopreserved the using FM with or without TAPI-2. Then, cells were thawed using WM with or without TAPI-2.
CD16 expression is maintained in NK cells in presence of TAPI-2.

T cells = experiment: CD62L expression on T cells after cryopreservation and thawing
Description: as §1, §2
CD62L expression is maintained in T cells in presence of TAPI-2.
Next, T cells were cryopreserved in freezing media without TAPI-2.

NK cells and T cells = experiment: Cell viability after thawing, trypan blue exclusion; conditions: TAPI-2 added to freezing medium; immediately and 120 minutes after thawing; FIGS. 6A-6B
Description: (§3) Polyclonally activated T cells and expanded NK cells were expanded for 14 and 12 days respectively and cryopreserved using freezing media (FM) with or without TAPI-2 prepared as described in Example 1. Cryovials were then stored in liquid nitrogen tank.
Cryovials were thawed in water bath with cell wash performed, cell recovery (FIGS. 5A-5B) and viability (FIGS. 6A-6B) was assessed immediately after thawing. Cell viability was also assessed 120 minutes after thawing (FIGS. 6A-6B). Trypan blue exclusion method was use to evaluate cell viability.

NK cells [2] = experiment: NK-cell phenotype by flow cytometry after thawing
Description: as §3
Flow analysis was performed 120 minutes after thawing (except for NKG2D which expression was analyzed immediately after thawing).

## CC(C)C[C@H](CC(=O)NO)C(=O)N[C@H](C(=O)N[C@@H](C)C(=O)NCCN)C(C)(C)C [TAPI-2]
NK cells [1]; FM containing 50 μM TAPI-2, thawed and not washed, immediately after thawing and 2 hours thereafter, FIG. 1
  CD16 expression after thawing: able to maintain CD16 expression
NK cells [1]; NK cells cryopreserved in FM containing TAPI-2, FIG. 1
  CD16 expression versus level prior to cryopreservation: retained expression of CD16 to the same level as prior cryopreservation
NK cells [1]; frozen in freezing media without TAPI-2, wash media with 10 μM TAPI-2 (Thaw+), FIG. 2
  CD16 expression after washing with wash medium containing TAPI-2: showed CD16 expression
T cells; FM containing 50 μM TAPI-2, thawed and not washed, immediately after thawing and 2 hours thereafter, FIG. 3
  CD62L expression after thawing: able to maintain CD62L expression
T cells; T cells cryopreserved in FM containing TAPI-2, FIG. 3
  CD62L expression versus level before cryopreservation: retained expression of CD62L to a level that was equal to that before cells were subjected to cryopreservation
T cells; frozen in freezing media without TAPI-2, wash media with 10 μM TAPI-2 (Thaw+), FIG. 4
  CD62L expression after washing with wash medium containing TAPI-2: showed CD62L expression
NK cells and T cells
  cell viability: did not negatively affect
NK cells [2]; TAPI-2 added to freezing medium, summary statement
  phenotype: did not negatively affect
NK cells [2]; TAPI-2 in the freezing media, flow analysis 120 minutes after thawing (NKG2D immediately after thawing), FIG. 7
  NK-cell phenotype: not affected
